Here are results for one compound from PubChem BioAssay (NCI).

Among the test systems are NCI-H522 lung; DU-145 prostate; NCI-H460 lung; SNB-75 CNS; HOP-92 NSCLC; KM12 colon; TK-10 renal; A498 renal; RPMI-8226 leukemia; K-562 leukemia; HL-60(TB) leukemia; OVCAR-3 ovarian.
Experiment in all cases: NCI-60 cell line screen, 48 h

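Cells were grown in 96-well plates and exposed to each compound for 48 hours at five concentrations; endpoints were interpolated linearly between bracketing concentrations, or set to the highest concentration if not reached. GI50: concentration for 50% inhibition of growth. Definition used: TGI = concentration required for complete inhibition of growth.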

`CO[C@]12C=C/C(=C(/C(=O)OCc3cccnc3)C(=O)CCCCCCCC[C@]3(OC)C=C/C(=C(/C(=O)OCc4cccnc4)C(=O)CCCCCCCC1)O3)O2`: the GI50 with NCI-H522 lung is 225 nM; with DU-145 prostate it was 375 nM; with NCI-H460 lung it was 321 nM; in the test with SNB-75 CNS, 247 nM; in the test on HOP-92 NSCLC, 262 nM; with KM12 colon, 207 nM. Besides, the GI50 with TK-10 renal is 583 nM; with A498 renal it was 432 nM; in the test on RPMI-8226 leukemia, 291 nM; with K-562 leukemia, 337 nM; in the test with HL-60(TB) leukemia, 337 nM; in the test on OVCAR-3 ovarian, 312 nM. Moreover, the TGI is 554 nM in the test with NCI-H522 lung; 1270 nM in the test with DU-145 prostate; 1020 nM with NCI-H460 lung; 1200 nM with SNB-75 CNS; 889 nM in the test with HOP-92 NSCLC; 429 nM with KM12 colon. Moreover, the TGI is 1960 nM in the test on TK-10 renal; 1720 nM with A498 renal; 927 nM in the test with RPMI-8226 leukemia; 1300 nM with K-562 leukemia; 1020 nM with HL-60(TB) leukemia; 917 nM in the test with OVCAR-3 ovarian.
